The data set is described as follows: in vitro. Particulars: human, hela cells, % viability.
For orientation: viability means a read-out of living cells in per cent, often relative to untreated cells. In the case of `O=C(COC(=O)c1cc(S(=O)(=O)N2CCCCC2)c(Cl)cc1Cl)c1ccccc1` [CBK261668], the viability at 28.5 h, 10 µM was 101%.

As for `O=C(O)c1cccc(NC(=O)c2ccc(COc3ccc(-c4ccccc4)cc3)o2)c1` [CBK299778], the viability at 28.5 h, 10 µM stood at 105%.

Turning to `N=C(N)NS(=O)(=O)c1ccc(N/C=C\C(=O)c2ccncc2)cc1` [CBK264185], the viability at 28.5 h, 10 µM amounted to 91.8%.

For `Cc1nn(CC(=O)N2CCCC(C)C2)c(=O)c2cc3sccc3n12` (centres unmarked) [CBK284046], the viability at 28.5 h, 10 µM worked out at 87.7%.

Consider `CC(C)(C)OC(=O)N1CCC(Oc2nccnc2Cl)CC1` [CBK067386], for which the viability at 28.5 h, 10 µM turned out to be 89.8%.

With `CCOc1ccc(S(=O)(=O)N2CCC(C(=O)O)CC2)cc1Cl` [CBK269759], the viability at 28.5 h, 10 µM came out at 97.4%.

Turning to `O=C(Cn1nnc(-c2ccc3c(c2)OCO3)n1)Nc1ccccc1C(=O)O` [CBK268025], the viability at 28.5 h, 10 µM was found to be 101%.

Turning to `COc1ccc(OCC(=O)Nc2ccc3c(c2)nc2n3CCN(Cc3ccccc3)C2)cc1` [CBK266989], the viability at 28.5 h, 10 µM was found to be 97.6%.

In the case of `CC(C)CC(=O)N1CCc2c([nH]c3ccccc23)C12CCN(Cc1ccccc1)C2` (centres unmarked) [CBK059459], the viability at 28.5 h, 10 µM was 81.6%.

For the compound `O=[N+]([O-])c1ccc(-c2ccc(/N=C/c3ccco3)cc2)cc1` [CBK261639], the viability at 28.5 h, 10 µM worked out at 92.2%.

On to `CCn1c(C)nc2cc(NC(=O)c3oc(C)nc3C)ccc21` [CBK281881], for which the viability at 28.5 h, 10 µM worked out at 106%.

Consider `CCOc1cccc(-c2cncc(NC(C)CCCC(C)(C)O)n2)c1` (centres unmarked) [CBK066020], for which the viability at 28.5 h, 10 µM was 95.6%.

On to `Nc1ncc(-c2ccc(Cl)cc2)c(C2CCCN(C(=O)C3CCCC3)C2)n1` (centres unmarked) [CBK285571], for which the viability at 28.5 h, 10 µM is 95.1%.

As for `Cc1nn(C)c2ncc(C(=O)N(C)Cc3ccc(C(C)(C)C)cc3)cc12` [CBK305657], the viability at 28.5 h, 10 µM came out at 99.9%.

As for `COc1ccccc1-c1ccc(NC(=O)CCn2cnc3ccccc3c2=O)cc1` [CBK285711], the viability at 28.5 h, 10 µM is 95.2%.

For `COc1cc(C)c(CN2CCN(C(=O)COc3cc4ccccc4cc3C(=O)O)CC2)cc1OC` [CBK296968], the viability at 28.5 h, 10 µM came out at 99.6%.

For `CCN(CC(=O)N1CCN(C)CC1)S(=O)(=O)c1ccc(OC)cc1` [CBK269374], the viability at 28.5 h, 10 µM was 89.2%.

For the compound `CN1CCN(C(=O)c2ccc(-c3ccoc3)nc2)CC1` [CBK156280], the viability at 28.5 h, 10 µM is 100%.

Take `O=C(CN1CCCC1)NC1CCCc2c1cnn2-c1ccc(F)cc1` (centres unmarked) [CBK283930]: the viability at 28.5 h, 10 µM was found to be 91.5%.

As to `OC1CCCn2c1nc1cc(Cl)ccc12` (centres unmarked) [CBK113625], the viability at 28.5 h, 10 µM was determined as 72.4%.

For the compound `CC(C)(CO)CNc1nc(-c2ccc(F)c(Cl)c2)cnc1N` [CBK063484], the viability at 28.5 h, 10 µM is 102%.

Turning to `CCc1ncc(C(=O)N(Cc2ccccn2)CC2CCCO2)cn1` (centres unmarked) [CBK307077], the viability at 28.5 h, 10 µM was found to be 95.1%.

On to `CC(C)(CO)CNC(=O)c1cnc(-c2ccccc2)c(-c2ccncc2)c1` [CBK036734], for which the viability at 28.5 h, 10 µM worked out at 111%.

In the case of `O=C(O)CCCNS(=O)(=O)c1ccc(C2CCCCC2)cc1` [CBK299800], the viability at 28.5 h, 10 µM was found to be 95.2%.

`CCc1cccc(C)c1N(C(=O)Cn1c(=O)[nH]c2ccccc21)C(C)COC` (centres unmarked) [CBK287950]: the viability at 28.5 h, 10 µM was found to be 80.1%.

`COc1ccc(CN2CCN(Cc3ccco3)CC2)cc1OCc1ccccc1` [CBK264225]: the viability at 28.5 h, 10 µM worked out at 105%.

Consider `COc1cccc(CN2CCCC(NC(=O)c3cn4ccsc4n3)C2)c1` (centres unmarked) [CBK307204], for which the viability at 28.5 h, 10 µM stood at 81.1%.

`Cc1nc(CN2CCC(Cc3ccccc3)CC2)cs1` [CBK126438]: the viability at 28.5 h, 10 µM was determined as 95.7%.

Take `C=CCOc1ccc(C(=O)C2=C(O)C(=O)N(Cc3cccnc3)C2c2cccnc2)cc1` (centres unmarked) [CBK265167]: the viability at 28.5 h, 10 µM is 98%.

With `COc1cc(C(=O)Oc2cccc(Nc3ncnc4ccccc34)c2)cc(OC)c1OC` [CBK264908], the viability at 28.5 h, 10 µM amounted to 109%.

For `CC(=O)N(C)c1nc(-c2cccc(N(C)C)c2)ccc1C(=O)NC1CCS(=O)(=O)C1` (centres unmarked) [CBK076590], the viability at 28.5 h, 10 µM stood at 103%.

As for `COc1cccc(CN2CCCN(c3nccc(OCC4COc5ccccc5O4)n3)CC2)c1OC` (centres unmarked) [CBK115476T], the viability at 28.5 h, 10 µM was found to be 108%.

As for `CCc1ccc(C(O)CNC2CCN(Cc3cscn3)CC2)cc1` (centres unmarked) [CBK304733], the viability at 28.5 h, 10 µM was 108%.

In the case of `OCCCNC(=S)Nc1ccc(Br)cc1Cl` [CBK086487], the viability at 28.5 h, 10 µM is 82.3%.

`Cn1ccnc1C(NC(=O)C1CCCC1)c1ccc(F)c(F)c1` (centres unmarked) [CBK283784]: the viability at 28.5 h, 10 µM is 97%.

Take `Cc1nc(COc2ccccc2)sc1C(=O)N1CCC(C(N)=O)CC1` [CBK202603]: the viability at 28.5 h, 10 µM turned out to be 103%.

Regarding `O=C(CN1CCC(C(O)C(=O)NC2CC2)CC1)Nc1cc(Cl)ccc1F` (centres unmarked) [CBK305477], the viability at 28.5 h, 10 µM amounted to 93.4%.

Consider `CCN1CCN(C(=O)CN(C)S(=O)(=O)c2ccc(OC)c(C)c2)CC1` [CBK268880], for which the viability at 28.5 h, 10 µM amounted to 110%.

On to `c1ccc(COc2ccc(-c3cc(Nc4ccc5[nH]ccc5c4)ncn3)cc2)cc1` [CBK090857], for which the viability at 28.5 h, 10 µM is 111%.

Take `CC(=O)N1CCC(C(=O)Nc2cnc(-c3ccc(F)c(Cl)c3)c(-c3cccnc3)n2)CC1` [CBK036719]: the viability at 28.5 h, 10 µM is 108%.

For the compound `Cc1ccc(NC(=O)/C=C/c2ccc3c(c2)OCO3)c(NC(=O)/C=C/c2ccc3c(c2)OCO3)c1` [CBK265423], the viability at 28.5 h, 10 µM was 114%.

Turning to `Cc1[nH]c(C(=O)NCCc2ccco2)c(C)c1C(=O)OC(C)C` [CBK295180], the viability at 28.5 h, 10 µM came out at 84.1%.

As for `O=C1CCc2cc(S(=O)(=O)Nc3ccccc3Cc3ccccc3)ccc2N1` [CBK286369], the viability at 28.5 h, 10 µM was 87%.

With `Cc1ccc(-c2cc3cccnc3n2CCC(=O)NC2CC2)cn1` [CBK284964], the viability at 28.5 h, 10 µM was 97.4%.

Take `COc1ccc([C@@]23CCC(NC(=O)Nc4ccc(OCc5ccccc5)cc4)C[C@@H]2N(C)CC3)cc1OC` (some centres unmarked) [CBK047551T]: the viability at 28.5 h, 10 µM came out at 105%.

With `COC(=O)c1c(NC(=S)NCc2ccccn2)sc2c1CCC2` [CBK267090], the viability at 28.5 h, 10 µM is 95.9%.

Turning to `CSc1ncc(Cl)c(C(=O)Nc2sc3c(c2C(=O)NCC2CCCO2)CCC3)n1` (centres unmarked) [CBK268959], the viability at 28.5 h, 10 µM turned out to be 95%.

For the compound `Cc1cc2c(=O)n(CC(=O)NCc3ccco3)cnc2s1` [CBK071898], the viability at 28.5 h, 10 µM was 91.2%.

In the case of `CC(=O)Nc1cccc(-c2cc(N3CCN(CC(=O)N(C)c4ccccc4)CC3)ncn2)c1` [CBK091134], the viability at 28.5 h, 10 µM came out at 99.7%.

In the case of `C/C(=N\NC(=O)c1cccc(Cl)c1)c1ccccc1O` [CBK261665], the viability at 28.5 h, 10 µM was 81.4%.

On to `CC1CCN(C(=O)C[C@@H]2O[C@H](CNS(=O)(=O)c3ccccc3)[C@@H](O)[C@H]2O)CC1` [CBK288927], for which the viability at 28.5 h, 10 µM was 89.7%.

For `COc1cc(NC(=O)N2CCC3(CC2)CC(=O)c2ccc(C)cc2O3)cc(OC)c1` [CBK166521], the viability at 28.5 h, 10 µM is 90.3%.

Turning to `CCCCc1ccc(-c2cnc(N)c3ncccc23)cc1` [CBK067588], the viability at 28.5 h, 10 µM worked out at 75.7%.

In the case of `CCc1nc2ccc(C(=O)N3CCCCC3)cn2c1N(CC)Cc1ccc2c(c1)OCCO2` [CBK146903], the viability at 28.5 h, 10 µM is 100%.

Regarding `CCCn1cc(CN2CC3C[C@@H](O)CN3C[C@@H]2C)c2ccccc21` (some centres unmarked) [CBK285466], the viability at 28.5 h, 10 µM came to 104%.

As to `OCc1nc2ccccc2n1CCCCOc1ccccc1Cl` [CBK270117], the viability at 28.5 h, 10 µM came out at 106%.

On to `Cc1ncc([N+](=O)[O-])n1CC(=O)Nc1ccccc1F` [CBK269335], for which the viability at 28.5 h, 10 µM is 86.4%.

For `O=C(C1CCN(S(=O)(=O)c2ccccc2)CC1)N1CCN(Cc2ccc3c(c2)OCO3)CC1` [CBK265713], the viability at 28.5 h, 10 µM came to 104%.

As for `CCN(CC)Cc1ccc2[nH]c(=O)c(CNCc3ccc(OC)cc3)cc2c1` [CBK132113], the viability at 28.5 h, 10 µM came to 106%.

Turning to `Cc1cccc(CN2CCC(NC(=O)C3(C#N)CCCC3)CC2)c1` [CBK305781], the viability at 28.5 h, 10 µM was 91.8%.

As for `COc1cc(OC)c(NC(=O)N2CCC(n3c(=O)[nH]c4ccccc43)CC2)cc1Cl` [CBK149851], the viability at 28.5 h, 10 µM stood at 91.4%.

Regarding `CC(=O)Nc1ccc(S(=O)(=O)Oc2ccc(C3C4=C(CC(C)(C)CC4=O)N=C4c5ccccc5C(=O)C43)cc2)cc1` (centres unmarked) [CBK262964], the viability at 28.5 h, 10 µM came out at 93.7%.

Take `COc1ccc2nc(NC(=O)c3ccc4c(c3)OCCO4)sc2c1` [CBK287572]: the viability at 28.5 h, 10 µM was determined as 103%.

`CCOC(=O)C1=NN(C(=O)c2ccc(Cl)cc2)C(O)(C(C)(C)C)C1` (centres unmarked) [CBK026308]: the viability at 28.5 h, 10 µM was 86%.

In the case of `O=C1N/C(=N/c2ccccc2Cl)S/C1=C/c1ccc(-c2ccccc2Cl)o1` [CBK067752], the viability at 28.5 h, 10 µM came out at 89.3%.

Take `COc1ccccc1CN(Cc1cccnc1)C(=O)NC(C)C(C)C` (centres unmarked) [CBK307672]: the viability at 28.5 h, 10 µM is 85.2%.

As for `S=C(Nc1ccccc1)Nc1nc2ccccc2n1CCOc1ccccc1` [CBK265487], the viability at 28.5 h, 10 µM amounted to 113%.

As for `Cc1cc(NS(=O)(=O)c2cc(C(F)(F)F)cc(C(F)(F)F)c2)n(C)n1` [CBK067261], the viability at 28.5 h, 10 µM worked out at 105%.

Consider `Cc1ccc(-n2c(SCC(=O)N3CCOCC3)nnc2-c2ccccc2O)c(C)c1` [CBK269112], for which the viability at 28.5 h, 10 µM was 88.1%.

On to `COc1nccnc1OC1CCN(CC(=O)Nc2c(C)cccc2C)CC1` [CBK084249], for which the viability at 28.5 h, 10 µM worked out at 96.1%.

On to `Oc1cccc(C(O)CNCc2ccc(OCc3ccc(Cl)cc3Cl)cc2)c1` (centres unmarked) [CBK267621C], for which the viability at 28.5 h, 10 µM was 93%.

As to `CCOC(=O)c1c(NS(=O)(=O)Cc2ccccc2[N+](=O)[O-])sc2c1CCCC2` [CBK004651], the viability at 28.5 h, 10 µM was 95.8%.

Take `CC(=O)N1CCN2C(=O)c3cc(-c4ccc5c(c4)OCO5)ccc3NC(=O)[C@H]2C1` [CBK289597]: the viability at 28.5 h, 10 µM is 90.1%.

In the case of `Fc1ccc(-c2cnn(-c3ccc(OC(F)(F)F)cc3)n2)c(F)c1` [CBK112740], the viability at 28.5 h, 10 µM is 99.1%.

Take `CCOC(=O)N1CCC(NC(=O)N(Cc2cccnc2)Cc2ccc3c(c2)OCO3)CC1` [CBK158897]: the viability at 28.5 h, 10 µM was 95.4%.

On to `O=C(CN1C(=O)N2CCCN=C2c2ccc(Cl)cc21)N1CCCC1` [CBK284387], for which the viability at 28.5 h, 10 µM was 78.7%.

Regarding `CC(=O)Nc1ccc(S(=O)(=O)NC2(C(F)(F)F)N=C(c3ccccc3)NC2=O)cc1` (centres unmarked) [CBK267932], the viability at 28.5 h, 10 µM is 113%.

These data come from publication PMC12040169 (PLOS Biology, 2025).
